Results published in PubChem BioAssay (NCI).
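Cells were grown in 96-well plates and exposed to each compound for 48 hours at five concentrations; endpoints were interpolated linearly between bracketing concentrations, or set to the highest concentration if not reached. At the TGI there is no net growth.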

Experiments:
Experiment in all cases: growth of human tumour cells (NCI), 48 h
786-0 renal = tested on: 786-0 renal
A549 NSCLC = tested on: A549 NSCLC
EKVX NSCLC = tested on: EKVX NSCLC
KM12 colon = tested on: KM12 colon
LXFL 529 NSCLC = tested on: LXFL 529 NSCLC
MOLT-4 leukemia = tested on: MOLT-4 leukemia
OVCAR-5 ovarian = tested on: OVCAR-5 ovarian
RPMI-8226 leukemia = tested on: RPMI-8226 leukemia
SK-MEL-5 melanoma = tested on: SK-MEL-5 melanoma
SK-OV-3 ovarian = tested on: SK-OV-3 ovarian

Compound	TGI (786-0 renal) [µM]	TGI (A549 NSCLC) [µM]	TGI (EKVX NSCLC) [µM]	TGI (KM12 colon) [µM]	TGI (LXFL 529 NSCLC) [µM]	TGI (MOLT-4 leukemia) [µM]	TGI (OVCAR-5 ovarian) [µM]	TGI (RPMI-8226 leukemia) [µM]	TGI (SK-MEL-5 melanoma) [µM]	TGI (SK-OV-3 ovarian) [µM]
COC(=O)C(C(=O)C(=O)Nc1cccc(O)c1)c1nc2ccc(Cl)cc2[nH]c1=O (configuration not stated)	> 100	> 100	> 100	> 100	> 100	> 100	> 100	> 100	> 100	> 100
COC(=O)CCC(NC(=S)N/N=C(\C)c1ccccn1)C(=O)OC (configuration not stated)	> 100	> 100	> 100	> 100	> 100	> 100	> 100	> 100	> 100	> 100
CC(=O)OC1(C#N)CC2OC1C1C2N1C(=O)c1ccccc1 (configuration not stated)	> 100	> 100	> 100	–	> 100	> 100	> 100	> 100	> 100	> 100
COc1c(OC(C)=O)cc2c(OC(C)=O)c1CC(C)CC(OC)C(O)C(C)/C=C(\C)C(OC(N)=O)C(OC)/C=C\C=C(/C)C(=O)N2 (configuration not stated)	> 100	> 100	> 100	> 100	> 100	> 87.4	> 100	> 80.9	> 100	> 100
Cc1ccc2nc3c(Cl)cc(=O)cc-3sc2c1	35.7	43	39.1	–	63.1	41.5	–	–	30.8	–
C/C(CN1C(=O)c2ccccc2C1=O)=N\NS(=O)(=O)c1ccccc1	> 100	> 100	> 100	> 100	> 100	> 100	> 100	> 100	> 100	> 100
CCC(=O)C1=C(OC(C)=O)C2Cc3c(n(C)c4ccccc34)C(C1)N2C (configuration not stated)	66.4	> 100	> 100	> 100	> 100	> 100	> 100	–	97.9	> 100
COc1cc2cc3c4c(cc(OC)c(OC)c4c2cc1OC)CCN3C(=O)CCCC(=O)O	> 100	> 100	> 100	> 100	> 100	> 100	> 100	> 100	> 100	> 100
NC(=S)N/N=C(/CC(=O)c1ccc([N+](=O)[O-])cc1)C(=O)Nc1ncc([N+](=O)[O-])s1	> 100	> 100	> 100	> 100	> 100	> 100	> 100	> 100	> 100	–
Nc1nnc2nc(CC(=O)/C=C/c3ccccc3)c(=O)[nH]n12	> 100	> 100	> 100	> 100	> 100	> 100	> 100	> 100	> 100	> 100
Cc1c2ccccc2c(C)c2c3c(ccc12)C(=O)C=CC3=O	> 62.2	> 100	> 85	> 67.6	31.5	6.78	> 100	60.6	> 79.3	> 100
CC(C)(O)[C@@H]1CCC(C)([C@H]2[C@@H](O)CC3(C)C4CC(OC5OC(CO)C(O)C(O)C5O)C5C(C)(C)[C@@H](OC6OCC(O)C(O)C6O)CC[C@@]56C[C@@]46CC[C@]23C)O1 (some centres not stated)	> 100	> 100	> 100	> 100	> 100	> 100	> 100	> 100	> 100	> 100
CCOc1ccccc1NC(=O)C(=O)CC(=O)C1=C(C)Nc2ccccc2S1	> 100	> 100	> 100	> 100	> 100	> 69.5	> 100	> 100	> 100	> 100
CCCOc1ccc(/C(Cl)=C(\C=O)c2ccc(OC)c(OC)c2)cc1OCCC	> 100	> 100	50.4	34.5	80.9	> 100	> 100	> 100	46.3	> 100
OC1CN(OC/C=C/c2ccccc2)CC(O)C1O (configuration not stated)	77	> 100	> 100	> 100	> 100	> 100	> 100	> 100	> 100	> 100
COc1ccc2c(=O)c([Se]c3coc4cc(OC)ccc4c3=O)coc2c1	> 100	> 100	> 100	> 100	> 100	> 100	> 100	> 100	> 100	> 100
C/C(=N/O)C1CC=C(S(=O)(=O)c2ccccc2)C1 (configuration not stated)	> 100	> 100	–	> 100	> 100	> 100	> 100	> 100	–	> 100
CC(=O)OC1C=CC2CCN3C(=O)c4cc5c(cc4[C@H]1C23)OCO5 (some centres not stated)	> 100	> 100	> 100	> 100	> 100	> 100	–	> 100	–	> 100
Cc1cc2c3ccccc3n(C)c2c2c1C(=O)c1ccccc1C2=O	34.3	58	> 100	> 100	35.5	27.4	–	–	–	61.7
CCOC(=O)CC(=O)ON(C)C(=O)Cc1ccccc1	> 100	> 100	> 100	> 100	> 100	–	> 100	> 100	> 100	> 100
CCSC1(SCC)CCN(C=NC(C)(C)C)C1	> 100	> 100	> 100	> 100	> 100	> 100	> 100	–	> 100	> 100
COc1ccc(/C=C2\N=C(c3ccccc3)OC2=O)c(OCc2ccccc2)c1	34.8	> 100	> 100	> 100	> 100	80.6	> 100	> 100	52.2	–
O=C(CC(=O)N1N=C(n2ccc3ccccc32)CC1c1ccccc1)Nc1cccc(Cl)c1 (configuration not stated)	> 100	> 100	> 100	> 100	> 100	> 100	> 100	> 100	–	> 100
